“Also recorded” adds a separate entry of the source. Read-outs that look alike come from different tables or passages of the source.
Tests used:
[1] = test system: L1210 cells; test: Life span of BDF1 mice inoculated ip with 10^6 L1210 leukemia cells; assay type: in vivo, mouse
Experimental: As illustrative examples of use of the compounds of the invention the following examples are given. […] These standard tests utilize protocols developed under the auspices of the Developmental Therapeutics Program, Division of Cancer Treatment, National Cancer Institute, Bethesda, Md., U.S.A. Except as otherwise indicated the tests conform to these protocols and are evaluated utilizing criteria defined by the protocols.
(§1) Values below 25% are considered capable of producing effective therapy, those below 10% are considered good and those below 5% are considered very good. This expresses the percent of the cells which survived treatment based upon the original cells in the inoculum. Those tests expressed as increases in life span (% ILS) indicate the increased life span of the drug treated group compared to a control group.
(§2) As an indicator of reproducible activity, compounds of the invention and other known cancer chemotherapeutic agents were screened against L1210 lymphoid leukemia in vivo utilizing the mouse as a test species. Normal NCI protocols for this test require 10^5 seed cells of the L1210 cell line.
Cytosine Arabinoside must be given every three hours.
Mice were inoculated intraperitoneally on day 0 with a million cells of murine leukemia L1210. Drug was given qd days 1, 4 and 7. Increased life span is the mean increase in the treated group presented as a percentage of the mean life span of control mice.
Mice were inoculated intraperitoneally on day 0 with a million cells of murine leukemia L1210. Drugs were given qd days 1, 3, 5 and 7. Increased life span is presented as a percentage of the mean life span of control mice.

[2] = test system: L1210 cells; test: Bioassay of viable L1210 cells in brain after intracranial inoculation and ip drug; assay type: in vivo, mouse; conditions: for intracranial activity: intracranial L1210; for Activity against I.C. L1210 cells, Cell Kill: ip dosage: Compound 18 22 mg/kg, Compound 19 173 mg/kg, Compound 20 62 mg/kg; for crossing of blood brain barrier / CNS penetration (words): mouse, in vivo; for Residual cells (% of control brain): 24 hr after single ip dose (mg/kg): Methotrexate 12, Adriamycin 3, 6-Mercaptopurine 160, Cytosine Arabinoside 1200, Cyclophosphamide 140, Compound 19 173, Tiazofurin 1200, BCNU 20
Source text: BDF1 mice were inoculated intracranially on day 0 with 1×10^5 L1210 cells. […] 24 hr after drug delivery the brains were collected, homogenized, and injected ip into untreated mice. Each mouse received the equivalent of half a brain. Thereafter, life span was monitored and, using inoculum-response data as a base of comparison, estimates were made of the numbers of viable cells in treated and control brains.

[3] = test system: L1210/6MP, 6TG, 6TGR cells; test: Life span of mice inoculated with L1210 resistant to 6MP, 6TG, 6TGR; assay type: in vivo, mouse; conditions: for activity against drug resistant cells (words): mouse, in vivo
[4] = Solubility (maximum solubility); assay type: physicochemical
[5] = Toxicity / maximum tolerated dosage in mice; assay type: in vivo; conditions: mouse, in vivo, single QD day 1 ip, L1210-inoculated BDF1 mice, read-out: Max. tolerated dosage
Experimental: In Example N other compounds of the invention were tested against L1210 cells. […] Activity in Table 14-a is tabulated as both increases in life span and as cells surviving treatment and that in table 14-b as T/C.

[6] = test system: drug resistant cell lines; test: Generation of drug resistant cell lines
[7] = test system: Human Colon Adenocarcinoma CX-1; conditions: data from Goldin et al 1981; activity indicated at ≤20; cited from earlier work
[8] = test system: drug resistant cell lines; conditions: background knowledge; cited from earlier work
[9] = test system: adenocarcinoma; conditions: background; cited from earlier work
[10] = test system: L1210 cells; test: L1210 cells surviving treatment (% of original inoculum); assay type: in vivo, mouse; conditions: single QD day 1 ip
Source text: as §1
as §2, with “line. However for the purposes of tests with the L1210 cell line in testing the compounds of the invention for antitumor activity, a log greater, i.e. 10^6 cells were utilized.” for “line.”
Tables 2-a and 2-b illustrate a dose response for Compound 19 against L1210 inoculated mice expressed as both increased life span compared to control and as the number of cells of the original inoculum surviving drug treatment. As is evident from the various regimens of drug treatment shown in Tables 2-a and 2-b, effective therapeutic effects are noted and a dose response to Compound 19 is evident. […] Cytosine Arabinoside must be given every three hours. Test results are given utilizing standard protocols based on mean survival time and are expressed as T/C percentages (treated animals/control animals).

NSc1nc(N)nc2c1ncn2[C@@H]1O[C@H](CO)[C@@H](O)[C@H]1O [Compound 18, 2-amino-9-β-D-ribofuranosyl-9H-purine-6-sulfenamide]
oral activity (words) [1]: Oral activity is seen | Activity against I.P. L1210 cells, T/C ([1]; oral 8 mg/kg, qd day 1): 147.0% | Activity against I.P. L1210 cells, T/C ([1]; oral 13 mg/kg, qd day 1): 147.0% | Activity against I.P. L1210 cells, T/C ([1]; oral 22 mg/kg, qd day 1): 153.0% | % ILS ([1]; single agent day 1, Compound 19 173 mg/kg, Compound 18 22 mg/kg (Table 12)): 51% | intracranial activity [2]: active intracranially | Activity against I.C. L1210 cells, Cell Kill [2]: 57.3 x | crossing of blood brain barrier / CNS penetration (words) [2]: effectively cross the blood brain barrier | Activity against I.P. L1210 cells resistant to 6MP, 6TG, 6TGR, T/C ([3]; 22 mg/kg, qd day 1): 93.8% | activity against drug resistant cells (words) [3]: shows no activity | Max. sol. dosage [4]: 22 mg/kg | MTD ([5]; ip): 22 mg/kg | generation of drug resistant cell lines (words) [6]: does generate drug resistant cell lines; also recorded: generates drug resistant cells

NS(=O)(=O)c1ncnc2c1ncn2[C@@H]1O[C@H](CO)[C@@H](O)[C@@H]1O [Compound 12, 9-β-D-Arabinofuranosyl-9H-purine-6-sulfonamide]
Max. sol. dosage [4]: 173 mg/kg | MTD ([5]; ip): 173 mg/kg

Sc1ncnc2nc[nH]c12 [6-Mercaptopurine]
Residual cells (% of control brain) [2]: 37% | Activity rating δT/δC [7]: 99 | inducement of drug resistant cell lines [8]: inducement of drug resistant cell line occurs | activity against adenocarcinoma [9]: highly active against adenocarcinoma

NSc1nc(N)nc2c1ncn2[C@@H]1O[C@@H]2COP(=O)(O)O[C@H]2[C@H]1O [Compound 29, 2-Amino-9-β-D-ribofuranosylpurine-6-sulfenamide 3',5'-cyclic phosphate]
% ILS ([1]; single QD day 1 ip): 59% | Cells surviving treatment (% of day 0 innoc.) [10]: 1.7% | Max. sol. dosage ([4]; in water): 480 mg/kg | MTD [5]: 480 mg/kg

Nc1nc([S+](N)[O-])c2ncn([C@@H]3O[C@@H]4COP(=O)(O)O[C@H]4[C@H]3O)c2n1 (stereo partly drawn) [Compound 30, 2-Amino-9-β-D-ribofuranosylpurine-6-sulfinamide 3',5'-cyclic phosphate]
% ILS ([1]; single QD day 1 ip): 59% | Cells surviving treatment (% of day 0 innoc.) [10]: 1.7% | Max. sol. dosage ([4]; in water): 288 mg/kg | MTD [5]: 288 mg/kg

Nc1nc([S+](N)[O-])c2ncn([C@H]3C[C@H](O)[C@@H](CO)O3)c2n1 (stereo partly drawn) [Compound 23, 2-amino-9-(2-deoxy-β-D-erythro-pentofuranosyl)-9H-purine-6-sulfinamide]
in vivo antitumor activity ([1]; mouse, in vivo): good activity | Max. sol. dosage [4]: 480 mg/kg | water solubility [4]: increased water solubility | MTD ([5]; ip): 173 mg/kg

NSc1ncnc2c1ncn2[C@@H]1O[C@H](CO)[C@@H](O)[C@H]1O [Compound 6, 9-β-D-Ribofuranosyl-9H-purine-6-sulfenamide]
Max. sol. dosage [4]: 480 mg/kg | MTD ([5]; ip): 480 mg/kg

NSc1nc(N)nc2c1ncn2[C@H]1C[C@H](O)[C@@H](CO)O1 [Compound 22, 2-Amino-9-(2-deoxy-β-D-erythro-pentofuranosyl)-9H-purine-6-sulfenamide]
Max. sol. dosage [4]: 173 mg/kg | MTD ([5]; ip): 173 mg/kg

NS(=O)(=O)c1ncnc2c1ncn2[C@@H]1O[C@H](CO)[C@@H](O)[C@H]1O [Compound 8, 9-β-D-Ribofuranosyl-9H-purine-6-sulfonamide]
Max. sol. dosage [4]: 480 mg/kg | MTD ([5]; ip): 173 mg/kg

NSc1ncnc2c1ncn2[C@H]1C[C@H](O)[C@@H](CO)O1 [Compound 14, 9-(2-Deoxy-β-D-erythro-pentofuranosyl)-9H-purine-6-sulfenamide]
Max. sol. dosage [4]: 800 mg/kg | MTD ([5]; ip): 288 mg/kg

N[S+]([O-])c1ncnc2c1ncn2[C@H]1C[C@H](O)[C@@H](CO)O1 (stereo partly drawn) [Compound 15, 9-(2-Deoxy-β-D-erythro-pentofuranosyl)-9H-ourine-6-sulfinamide]
% ILS ([1]; single QD day 1 ip): 33% | Cells surviving treatment (% of day 0 innoc.) [10]: 16% | Max. sol. dosage [4]: 800 mg/kg | MTD ([5]; ip): 104 mg/kg

Nc1nc(S(N)(=O)=O)c2ncn([C@@H]3O[C@H](CO)[C@@H](O)[C@H]3O)c2n1 [Compound 20, 2-amino-9-β-D-ribofuranosyl-9H-purine-6-sulfonamide]
oral activity (words) [1]: not present | Activity against I.P. L1210 cells, T/C ([1]; oral 22 mg/kg, bid days 1,4,7): 103.3% | Activity against I.P. L1210 cells, T/C ([1]; oral 37 mg/kg, bid days 1,4,7): 103.3% | Activity against I.P. L1210 cells, T/C ([1]; oral 62 mg/kg, bid days 1,4,7): 103.3% | oral activity (words) ([1]; listed as 6-sulfonamide analog): lack of oral activity | intracranial activity [2]: no intracranial activity is seen | Activity against I.C. L1210 cells, Cell Kill [2]: 0.0 x | crossing of blood brain barrier / CNS penetration (words) [2]: lack of oral activity and CNS penetration | Activity against I.P. L1210 cells resistant to 6MP, 6TG, 6TGR, T/C ([3]; 22 mg/kg, bid days 1,4,7): 106.7% | Activity against I.P. L1210 cells resistant to 6MP, 6TG, 6TGR, T/C ([3]; 37 mg/kg, bid days 1,4,7): 130.0% | Activity against I.P. L1210 cells resistant to 6MP, 6TG, 6TGR, T/C ([3]; 62 mg/kg, bid days 1,4,7): 163.3% | activity against drug resistant cells (words) [3]: active | Max. sol. dosage [4]: 62 mg/kg | MTD ([5]; ip): 62 mg/kg

Nc1ccn([C@@H]2O[C@H](CO)[C@@H](O)[C@@H]2O)c(=O)n1 [Cytosine Arabinoside]
Residual cells (% of control brain) [2]: 15% | Activity rating δT/δC [7]: 73 | inducement of drug resistant cell lines [8]: inducement of drug resistant cell line occurs

NSc1nc(N)nc2c1ccn2[C@H]1C[C@H](O)[C@@H](CO)O1 [Compound 38, 2-Amino-7-(2-deoxy-β-D-erythro-pentofuranosyl)pyrrolo[2,3-d]pyrimidine-4-sulfenamide]
Max. sol. dosage [4]: 173 mg/kg | MTD ([5]; ip): 173 mg/kg

NS(=O)(=O)c1ncnc2c1ncn2[C@H]1C[C@H](O)[C@@H](CO)O1 [Compound 16, 9-(2-Deoxy-β-D-erythro-pentofuranosYl)-9H-purine-6-sulfonamide]
Max. sol. dosage [4]: 800 mg/kg | MTD ([5]; ip): 173 mg/kg

Reference: patent US5026836A, “6-sulfenamide, 6-sulfinamide and 6-sulfonamide purines, purine nucleosides, purine nucleotides, pharmaceutical compositions, and processes of making” (priority 1988, dated 1991)
